Assay results as given in US20150216865A1, “METHODS OF TREATING A BRUTON'S TYROSINE KINASE DISEASE OR DISORDER” (Celgene Avilomics Research, Inc., priority 2012, published 2015).
“Also recorded” adds a separate entry of the source. Marks after values point to notes of the source that are not given here.

Assays:
[1] = test system: KC; experiment: Inflammatory chemokine and cytokine analysis in CIA mice, KC; assay type: in vivo, mouse
Source text: Inflammatory Chemokine and Cytokine Analysis: At the termination of the CIA study, mice were sacrificed and blood was harvested via cardiac punch using EDTA as an anticoagulant. […] Levels of various mouse cytokines in plasma were quantified using Bioplex® Suspension Array System according to manufacturer's instruction (BioRad, mTNFa (171-G5023M), mIL-6 (171-G5007M), mKC (171-G5018M), mIFNg (171-G5017M), mIL-17 (Z60-00006Z2), mIL-1β (171-G5002M), mMCP-1 (171-G5019M).

[2] = test system: semi-established CIA Dba1 mice; experiment: Semi-established collagen induced arthritis (CIA) model; assay type: in vivo, mouse; conditions: 3 mg/kg, 10 mg/kg or 30 mg/kg daily
Protocol: Semi-Established Collagen Induced Arthritis (CIA) Arthritis Model. Experiments were carried out at Bolder Biopath, Boulder, Colo. All experiments were carried out in compliance with regulations of the Institutional Animal Care and Use Committee and were conducted in accordance with principles and procedures dictated by the highest standards of humane animal care. Dba1 mice were injected at the base of the tail with 150 μL of Freund's Complete Adjuvant (Sigma) containing bovine type II collagen (Elastin Products, Owensville, Mo.) (2 mg/ml) on day 0 and again on day 21. Mice were randomized into treatment groups on study day 21, and treatment was initiated. Treatment continued daily (3 mg/kg, 10 mg/kg or 30 mg/kg QD at 24 hour intervals) through day 33, and mice were terminated on day 33 (animals 1-6) or day 34 (animals 7-12). Onset of arthritis occurred between study days 21 and 34. Clinical scores were assessed for each of the paws on study days 21-34 using the following scoring system: 0=normal, 1=one hind or fore paw joint affected or minimal diffuse erythema and swelling, 2=two hind or fore paw joints affected or mild diffuse erythema and swelling, 3=three hind or fore paw joints affected or moderate diffuse erythema and swelling, 4=marked diffuse erythema and swelling or =four digit joints affected, 5=severe diffuse erythema and severe swelling entire paw, unable to flex digits. Spleens and plasma were harvested at necropsy (day 33 for animals 1-6 and day 34 for animals 7-12) and paws were removed and fixed in formalin for histopathological analysis.

[3] = test system: male NOD mice; experiment: NOD mouse model, lachrymal gland secretion (cotton thread test); assay type: in vivo; conditions: besylate
Protocol: Non-Obese Diabetic Mouse (NOD) Model of Sjogren's Syndrome. Male Non Obese Diabetic (NOD) mice from the KWS BioTest NOD colony and male BALB/c mice were randomly allocated to experimental groups and allowed to acclimatise for one week prior to the beginning of the study. From six weeks of age, animals were treated according to the administration schedule in Table 5, below. Each group consisted of n=12 animals. The administration volume was 15 ml/kg from 6-12 weeks of age. The administration volume was then decreased to 10 ml/kg from 13-20 weeks of age. The vehicle was distilled water pH 3.0-3.5 for Group 7. The vehicle was 0.5% methylcellulose and 0.25% Tween® 80 for all other groups.
Measurement of lachrymal gland secretion. Lachrymal gland secretion was measured every other week from six weeks of age using a cotton thread test. Briefly, animals were anaesthetised and a fluorescein-stained cotton thread was inserted under the eye lid in the medial canthus region and held in place for two minutes. Results for each group were graphed and presented with SEM's.
Lachrymal Gland Secretion. Lachrymal gland secretion was measured by the cotton thread test. Data are expressed as millimetres per gram bodyweight. Data from this readout are indicative of inflammatory changes in the lachrymal gland, but significant changes are typically only seen from weeks 18 onwards in NOD mice. Data were analysed by two-way ANOVA for repeated measures followed by Dunnett's post-test for multiple comparisons to the vehicle-treated group and presented as mean±SEM (FIG. 14).

[4] = Clinical single dose study in healthy human volunteers, pharmacokinetics; assay type: in vivo; conditions: single oral 2 mg/kg
Protocol: Clinical Study: A double blind, placebo-controlled, ascending single dose, randomized study in normal healthy human volunteers was conducted at a single clinical research unit in accordance with Declaration of Helsinki principles. Informed consent statements were obtained from all subjects prior to inclusion in the study. Subjects were admitted to the unit 1 day before dosing and discharged 96 h after dosing.

[5] = test system: male NOD mice; experiment: NOD mouse model, lachrymal gland histopathology; assay type: in vivo; conditions: 20 weeks of age
Source text: Histopathology. Samples of lachrymal gland and salivary glands from all animals were fixed for Haematoxylin & Eosin histological analysis. Sections were inspected blind by a qualified histopathologist and scored for signs of pathology according to a semi-quantitative scoring system. This system is based on the mean number of inflammatory foci comprising 50 or more mononuclear inflammatory cells per objective field. The ratio of infiltrated to normal glandular tissue was expressed on a five point scale.
Lachrymal Gland Histopathology. Lachrymal glands from Control BALB/c mice (n=12 mice) and vehicle-treated NOD mice (n=9 mice) were examined and scored, in order to validate the model. For each animal, one section from the right lachrymal gland and one section from the left lachrymal gland were prepared. Sections were examined and scored for two criteria:
(i) Focus Score. The mean number of inflammatory foci comprising ≧50 mononuclear inflammatory cells per ×10 objective field was counted. Five such fields were assessed (where possible) to derive this index and these are selected to contain the maximum number of such foci. Where the overall area of the tissue section was less than five fields, the number of ×10 objective fields was recorded and used to determine the focus score. (ii) Area Score. […]

[6] = test system: TNF-a; experiment: Inflammatory chemokine and cytokine analysis in CIA mice, TNF-a; assay type: in vivo, mouse
Protocol: Inflammatory Chemokine and Cytokine Analysis: At the termination of the CIA study, mice were sacrificed and blood was harvested via cardiac punch using EDTA as an anticoagulant. Following centrifugation, serum was diluted 1:4 with a mouse serum diluents kit (BioRad cat#171-305004). Levels of various mouse cytokines in plasma were quantified using Bioplex® Suspension Array System according to manufacturer's instruction (BioRad, mTNFa (171-G5023M), mIL-6 (171-G5007M), mKC (171-G5018M), mIFNg (171-G5017M), mIL-17 (Z60-00006Z2), mIL-1β (171-G5002M), mMCP-1 (171-G5019M).

[7] = Environmental stability; assay type: physicochemical

C=CC(=O)Nc1cccc(Nc2nc(Nc3ccc(OCCOC)cc3)ncc2F)c1 [Compound 1 besylate, N-(3-(5-fluoro-2-(4-(2-methoxyethoxyl)phenylamino)pyrimidin-4-ylamino)phenyl)acrylamide besylate]
KC mean ([1]; 3 mg/kg): 62.0 pg/mL
KC mean ([1]; 10 mg/kg): 31.1* pg/mL
KC mean ([1]; 30 mg/lkg): 17.5* pg/mL
effect on clinical parameters of developing type II collagen arthritis [2]: significant beneficial effect
lachrymal gland secretion vs vehicle ([3]; 30 mg/kg SID, 10, 18 and 20 weeks of age): significantly higher; also recorded: statistically significant increase
lachrymal gland secretion vs vehicle ([3]; 50 mg/kg twice daily, 6, 8, 10, 18 and 20 weeks of age): significantly higher; also recorded: statistically significant increase
lachrymal gland secretion vs vehicle ([3]; 100 mg/kg SID, 8, 10, 12, 16, 18 and 20 weeks of age): significantly higher; also recorded: statistically significant increase
lachrymal gland secretion vs vehicle ([3]; ad libitum 0.16 mg/ml in drinking water, 10, 16, 18 and 20 weeks of age): significantly higher; also recorded: statistically significant increase
Cmax ([4]; plasma, 6 subjects, read-out: mean maximum plasma concentration (Cmax)): 542 ng/mL
half-life ([4]; plasma, read-out: median terminal elimination half-life (converted)): 1.9 h
time to peak plasma concentrations [4]: 30 to 120 min
plasma concentrations at 48 hours post dose ([4]; all subjects): below the lower limit of quantification
plasma concentrations within 24 hours post dose ([4]; limit of detection 0.1 ng/mL): near or below the lower limit of detection
lachrymal gland Area Score (proportion of infiltrated glandular tissue) vs vehicle [5]: did not reduce
lachrymal gland Focus Score (number of inflammatory foci) vs vehicle [5]: did not reduce
TNF-a mean ([6]; 3 mg/kg): 160.2 pg/mL
TNF-a mean ([6]; 10 mg/kg): 123.0* pg/mL
TNF-a mean ([6]; 30 mg/lkg): 117.0* pg/mL
environmental instabilities (heat, acid, base) [7]: no environmental instabilities
